Measurements from ChEMBL document CHEMBL4825780 (ACS Med Chem Lett, 2021).
Active and inactive are the calls of the source. The rule behind the calls is not given here.

Tests used:
[1] = target: Cyclin-C/Cyclin-dependent kinase 19 (Homo sapiens, UniProt Q9BWU1); assay: Inhibition of tracer 236 binding to recombinant human GST/His-tagged CDK11 (1 to 502 residues)/Cyclin C( 1 to 283 residues) expressed in insect cells by Lanthascreen assay
[2] = target: CDK8/Cyclin C (Homo sapiens, UniProt P49336); assay: Inhibition of tracer 236 binding to recombinant human His-tagged full length CDK8/Cyclin C expressed in baculovirus expression system by Lanthascreen assay
[3] = Metabolic stability in mouse hepatocytes assessed as intrinsic clearance; format: ADME, cell-based, Hepatocyte
[4] = Metabolic stability in mouse hepatocytes assessed as half life; format: ADME, cell-based, Hepatocyte
[5] = test system: T1, Receptor-type tyrosine-protein kinase FLT3 (Homo sapiens), P36888 [D835V]; assay: Inhibition of human partial length FLT3 […] mutant (V592 to Y969 residues) expressed in mammalian expression system at 1 uM measured by Kinomescan method
T1 sequence (whole entry): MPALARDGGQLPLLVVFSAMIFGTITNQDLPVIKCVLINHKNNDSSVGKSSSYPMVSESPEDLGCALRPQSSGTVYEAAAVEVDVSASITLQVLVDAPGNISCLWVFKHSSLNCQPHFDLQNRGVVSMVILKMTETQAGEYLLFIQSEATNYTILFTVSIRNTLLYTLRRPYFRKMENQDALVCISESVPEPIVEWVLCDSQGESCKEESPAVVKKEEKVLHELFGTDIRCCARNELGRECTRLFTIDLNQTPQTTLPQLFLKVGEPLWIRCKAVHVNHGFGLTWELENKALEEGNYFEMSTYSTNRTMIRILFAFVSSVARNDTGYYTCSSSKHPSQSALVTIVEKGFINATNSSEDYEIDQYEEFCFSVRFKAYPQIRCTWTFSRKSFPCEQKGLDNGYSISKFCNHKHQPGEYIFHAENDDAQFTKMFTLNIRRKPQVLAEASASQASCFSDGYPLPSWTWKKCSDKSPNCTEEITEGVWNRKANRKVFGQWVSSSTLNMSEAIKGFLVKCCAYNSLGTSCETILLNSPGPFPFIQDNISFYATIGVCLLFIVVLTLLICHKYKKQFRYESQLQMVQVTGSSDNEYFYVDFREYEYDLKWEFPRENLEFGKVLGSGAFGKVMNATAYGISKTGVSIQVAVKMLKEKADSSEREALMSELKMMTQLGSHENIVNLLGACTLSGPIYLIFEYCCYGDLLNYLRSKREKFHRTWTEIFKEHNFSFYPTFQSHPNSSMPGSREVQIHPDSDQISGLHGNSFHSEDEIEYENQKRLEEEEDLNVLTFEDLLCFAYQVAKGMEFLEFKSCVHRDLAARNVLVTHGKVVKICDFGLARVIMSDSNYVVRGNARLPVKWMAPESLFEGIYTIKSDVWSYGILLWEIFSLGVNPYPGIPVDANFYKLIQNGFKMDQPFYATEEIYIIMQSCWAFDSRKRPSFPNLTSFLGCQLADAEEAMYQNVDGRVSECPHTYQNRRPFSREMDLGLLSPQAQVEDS

[6] = AUC in C57Bl/6 mouse at 10 mg/kg, po; format: ADME, organism-based; parameters: dose 10 mg/kg; conditions: in vivo
[7] = target: T2, Serine/threonine-protein kinase 16 (Homo sapiens, UniProt O75716); assay: Inhibition of human wild type partial length STK16 (G11 to I305) expressed in bacterial expression system by Kinomescan method
[8] = target: T2, Serine/threonine-protein kinase 16; assay: Inhibition of human wild type partial length STK16 (G11 to I305 residues) expressed in bacterial expression system at 1 uM measured by Kinomescan method
[9] = Oral bioavailability in C57Bl/6 mouse at 10 mg/kg; format: ADME, organism-based; conditions: in vivo
[10] = Half life in C57Bl/6 mouse at 10 mg/kg, po; format: ADME, organism-based; conditions: in vivo
[11] = Clearance in C57Bl/6 mouse at 10 mg/kg, po or 2 mg/kg, iv; format: ADME, organism-based; conditions: in vivo
[12] = Cmax in C57Bl/6 mouse at 10 mg/kg, po; format: ADME, organism-based; parameters: route oral, dose 10 mg/kg; conditions: in vivo
[13] = Volume of distribution at steady state in C57Bl/6 mouse at 10 mg/kg, po or 2 mg/kg, iv; format: ADME, organism-based; conditions: in vivo, read-out: Vdss
[14] = target: Cyclin-dependent kinase 8 (Homo sapiens, UniProt P49336)
Chain of Cyclin-dependent kinase 8 (P49336 whole entry): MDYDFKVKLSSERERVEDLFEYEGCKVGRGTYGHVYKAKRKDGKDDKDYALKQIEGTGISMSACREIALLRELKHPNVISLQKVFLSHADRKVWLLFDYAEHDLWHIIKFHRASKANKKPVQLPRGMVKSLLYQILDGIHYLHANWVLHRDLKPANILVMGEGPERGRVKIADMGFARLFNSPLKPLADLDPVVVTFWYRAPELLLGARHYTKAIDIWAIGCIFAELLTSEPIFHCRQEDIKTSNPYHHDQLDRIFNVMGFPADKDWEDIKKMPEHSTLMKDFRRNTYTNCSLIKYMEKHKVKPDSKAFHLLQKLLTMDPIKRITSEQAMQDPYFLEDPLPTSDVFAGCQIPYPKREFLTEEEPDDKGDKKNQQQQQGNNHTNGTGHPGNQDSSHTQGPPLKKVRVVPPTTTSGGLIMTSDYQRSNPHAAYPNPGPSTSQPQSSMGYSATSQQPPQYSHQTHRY
Description: Inhibition of human CDK8 in human Jurkat cells assessed as inhibition of STAT1 phosphorylation at S727 residue measured after 24 hrs by Western blot assay

Chain of Cyclin-C/Cyclin-dependent kinase 19 (Q9BWU1 whole entry, the tested form may be a part): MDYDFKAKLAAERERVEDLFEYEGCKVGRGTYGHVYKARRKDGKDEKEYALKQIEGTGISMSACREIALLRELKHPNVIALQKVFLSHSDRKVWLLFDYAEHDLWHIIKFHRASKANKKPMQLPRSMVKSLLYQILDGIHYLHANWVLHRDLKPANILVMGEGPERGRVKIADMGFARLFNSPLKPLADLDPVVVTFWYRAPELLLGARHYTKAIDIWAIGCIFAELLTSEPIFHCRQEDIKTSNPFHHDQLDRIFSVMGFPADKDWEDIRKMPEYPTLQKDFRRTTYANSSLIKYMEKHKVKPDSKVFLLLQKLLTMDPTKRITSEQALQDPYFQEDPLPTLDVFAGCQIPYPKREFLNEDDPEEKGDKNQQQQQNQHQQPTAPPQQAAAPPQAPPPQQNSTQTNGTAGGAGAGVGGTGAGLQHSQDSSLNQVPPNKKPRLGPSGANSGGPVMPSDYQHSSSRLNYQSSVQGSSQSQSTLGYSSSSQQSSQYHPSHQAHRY
Chain of Cyclin-C/Cyclin-dependent kinase 19 (P24863 whole entry, further chain, the tested form may be a part): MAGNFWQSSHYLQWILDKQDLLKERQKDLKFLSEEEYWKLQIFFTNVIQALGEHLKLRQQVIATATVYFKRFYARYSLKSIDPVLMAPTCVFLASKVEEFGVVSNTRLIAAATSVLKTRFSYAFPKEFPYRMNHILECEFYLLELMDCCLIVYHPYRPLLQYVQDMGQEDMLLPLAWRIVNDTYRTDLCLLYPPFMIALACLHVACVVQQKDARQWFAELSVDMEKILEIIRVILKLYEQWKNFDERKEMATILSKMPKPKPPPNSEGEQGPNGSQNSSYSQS
Chain of CDK8/Cyclin C (P49336 whole entry): as the sequence (P49336 whole entry) above
Chain of CDK8/Cyclin C (P24863 whole entry, further chain): as the sequence (P24863 whole entry, further chain, the tested form may be a part) above
T2 sequence (O75716 whole entry, the tested form may be a part): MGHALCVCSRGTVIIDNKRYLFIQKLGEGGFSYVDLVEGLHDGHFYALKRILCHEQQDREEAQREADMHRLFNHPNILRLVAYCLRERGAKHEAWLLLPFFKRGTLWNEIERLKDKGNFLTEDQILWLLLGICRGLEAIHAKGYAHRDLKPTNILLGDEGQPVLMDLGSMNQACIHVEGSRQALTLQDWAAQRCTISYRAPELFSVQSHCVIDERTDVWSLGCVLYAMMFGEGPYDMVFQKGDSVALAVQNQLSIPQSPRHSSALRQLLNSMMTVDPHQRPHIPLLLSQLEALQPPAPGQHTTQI

Row | SMILES | IC50 [1] | IC50 [2] | also measured
1 | O=C1NCCC12CCN(c1c(-c3ccc4ncnn4c3)cnc3[nH]ccc13)CC2 | 1020 nM | 274 nM | –
2 | Cn1ncc2cc(-c3cnc4[nH]ncc4c3N3CCC4(CCNC4=O)CC3)ccc21 | 214 nM | 178 nM | intrinsic clearance (CLint) [3]: 59 µL/min/mg; half-life [4]: 11 min
3 | Cn1ncc2cc(-c3cnc4[nH]ccc4c3N3CCC4(CCCNC4=O)CC3)ccc21 | 3 nM | – | –
4 | Cn1ncc2cc(-c3cnc4[nH]nc(Cl)c4c3N3CCC4(CCNC4=O)CC3)ccc21 | 2 nM | 1 nM | inhibition [5]: Active; AUC [6]: 864 ng·h/mL; IC50 [7]: 107 nM; inhibition [8]: Active; intrinsic clearance (CLint) [3]: 15 µL/min/mg; bioavailability [9]: 8%; half-life [4]: 46 min; half-life [10]: 78 min; clearance [11]: 17 mL/min/kg; Cmax [12]: 104 ng/mL; Vd [13]: 0.8 L/kg; IC50 [14]: 2 nM
5 | O=C1NCCC12CCN(c1c(-c3ccc4[nH]cnc4c3)cnc3[nH]ccc13)CC2 | 17 nM | 5 nM | –
6 | O=C1NCCC12CCN(c1c(-c3ccn4ccnc4c3)cnc3[nH]ccc13)CC2 | 68 nM | 76 nM | –
7 | Cn1ncc2cc(-c3cnc4[nH]ccc4c3N3CCC4(CC3)CNC4=O)ccc21 | 6 nM | 6 nM | –
8 | Cn1cnc2cc(-c3cnc4[nH]ccc4c3N3CCC4(CCNC4=O)CC3)ccc21 | 50 nM | 32 nM | –
9 | Cn1ncc2cc(-c3cnc4[nH]ccc4c3N3CCC4(CC3)NC(=O)NC4=O)ccc21 | 2 nM | – | –
10 | Cn1ncc2cc(-c3cnc4[nH]cnc4c3N3CCC4(CCNC4=O)CC3)ccc21 | 5 nM | 10 nM | intrinsic clearance (CLint) [3]: 158 µL/min/mg; half-life [4]: 5 min
11 | O=C1NCCC12CCN(c1c(-c3ccc4scnc4c3)cnc3[nH]ccc13)CC2 | 14 nM | 6 nM | –
12 | Cc1n[nH]c2ncc(C(=O)N3CCC[C@H]3c3ccc(Cl)cc3)cc12 | – | – | IC50 [14]: 3 nM
13 | Cn1ncc2cc(-c3cnc4[nH]cc(Cl)c4c3N3CCC4(CCNC4=O)CC3)ccc21 | 10 nM | 2 nM | intrinsic clearance (CLint) [3]: 64 µL/min/mg; half-life [4]: 11 min
14 | Cn1ncc2cc(-c3cnc4[nH]ccc4c3N3CCC4(CC3)CNC(=O)O4)ccc21 | 6 nM | 7 nM | –
15 | Cn1ncc2cc(-c3cnc4[nH]ccc4c3N3CCC4(CCNC4=O)C3)ccc21 (stereo not drawn) | 29 nM | 55 nM | –
16 | Cn1ncc2cc(-c3cnc4[nH]ccc4c3N3CCC4(CCNC4=O)CC3)ccc21 | – | – | intrinsic clearance (CLint) [3]: 78 µL/min/mg; half-life [4]: 9 min
17 | O=C1NCCC12CCN(c1c(-c3ccc4ncsc4c3)cnc3[nH]ccc13)CC2 | 80 nM | 25 nM | –
18 | Cn1ncc2cc(-c3cnc4[nH]ccc4c3N3CC4(CCNC4=O)C3)ccc21 | 426 nM | 538 nM | –
19 | Cn1ncc2cc(-c3cnc4[nH]ccc4c3N3CC4(CNC(=O)C4)C3)ccc21 | 698 nM | 916 nM | –
